# Test results taken from US4228162A (priority 1979, dated 1980).
# What was measured:
# rabbit eye = test: Eye Irritation--Rabbit; type: in vivo
# Method: […] was instilled into the conjunctival sac of the rabbit eye. Over a period of several years two different lots of DMI (designated here merely as A or B) were tested at different times and at various concentrations. […] The following classification of degree of irritancy, according to the terminology of […], was made for the various tests on the unwashed eye: The classification of DMI according to specifications provided in the Federal Hazardous Substances Act for the specified test and concentration are shown below: […]
# rabbit skin [1] = settings: in vivo
# Method: (§1) Groups of four albino rabbits were given dosages of 1.00, 2.15, 4.64 and 10.0 ml per kg, respectively.
# [2] = Preliminary toxicity of dimethyl isosorbide
# Description: We use dimethyl isosorbide (DMI) as the vehicle for the liquid formulation of aspirin. […] When used internally, it is predicted that DMI will be metabolized to form isosorbide, a remedy for diuretic purposes. From the chemical structural point of view, it is seen that DMI is practically inert to aspirin degradation.
# rabbit skin [3] = settings: in vivo; remark: listed apart in the source
# human skin = test: Human Patch Tests; type: in vivo
# Description: Undiluted dimethyl ether of isosorbide has been tested under a closed patch of human subjects in accordance with the […] patch-test procedure originally designed by the dermatologist, B. Schwartz, M.D., and more recently adapted by R. B. Osbourn, M.D.
# rats = test: Acute Oral Toxicity--Rat; type: in vivo
# Method: An approximate oral LD50 of dimethyl isorbide was determined.
# rabbit skin [4] = test: Acute Percutaneous Toxicity--Rabbit
# Method: as §1
# [5] = Method: The samples were prepared using USP grade aspirin, which was dried at 110° before use. […] Spectrum b was taken after the sample (containing 10% water) was stored at 70° C. for 96 hours.
# [6] = tested on: external auditory canal of rabbit ear; test: Instillation into Rabbit Ear; type: in vivo; settings: four right rabbit ears, up to 5 days
# Method: DMI was introduced onto the external auditory canal of each of four right rabbit ears. Likewise, four other right rabbit ears were instilled with 0.35 ml of 40% DMI in water.
compound,measurement,setting,value
"CO[C@H]1CO[C@H]2[C@@H]1OC[C@H]2OC [Dimethyl isosorbide, dimethyl isosorbide]",Class. as Irritating Code of Federal Regulations,"rabbit eye; 40%, lot A, test 1",Negative
same,No. of Eyes Positive / No. of Eyes Tested CFR,"rabbit eye; 40%, lot A, test 1",0/6
same,Average Score (out of potential 100),"rabbit eye; 40%, lot A, test 1, 3 eyes, washed 2 sec., 1 hour",0.0
same,Average Score (out of potential 100),"rabbit eye; 40%, lot A, test 1, 3 eyes, washed 2 sec., 24 hours",0.0
same,Average Score (out of potential 100),"rabbit eye; 40%, lot A, test 1, 3 eyes, washed 2 sec., 48 hours",0.0
same,Average Score (out of potential 100),"rabbit eye; 40%, lot A, test 1, 3 eyes, washed 2 sec., 72 hours",0.0
same,Average Score (out of potential 100),"rabbit eye; 40%, lot A, test 1, 3 eyes, washed 2 sec., 96 hours",0.0
same,Average Score (out of potential 100),"rabbit eye; 40%, lot A, test 1, 3 eyes, washed 2 sec., 7 days",0.0
same,Average Score (out of potential 100),"rabbit eye; 40%, lot A, test 1, 6 eyes, unwashed, 1 hour",0.0
same,Average Score (out of potential 100),"rabbit eye; 40%, lot A, test 1, 6 eyes, unwashed, 24 hours",0.0
same,Average Score (out of potential 100),"rabbit eye; 40%, lot A, test 1, 6 eyes, unwashed, 48 hours",0.0
same,Average Score (out of potential 100),"rabbit eye; 40%, lot A, test 1, 6 eyes, unwashed, 72 hours",0.0
same,Average Score (out of potential 100),"rabbit eye; 40%, lot A, test 1, 6 eyes, unwashed, 96 hours",0.0
same,Average Score (out of potential 100),"rabbit eye; 40%, lot A, test 1, 6 eyes, unwashed, 7 days",0.0
same,Classification (Kay and Calandra),"rabbit eye; 40%, lot A, test 1, unwashed eye",Nonirritating
same,Class. as Irritating Code of Federal Regulations,"rabbit eye; 60%, lot A, test 1",Negative
same,No. of Eyes Positive / No. of Eyes Tested CFR,"rabbit eye; 60%, lot A, test 1",0/6
same,Average Score (out of potential 100),"rabbit eye; 60%, lot A, test 1, 3 eyes, washed 2 sec., 1 hour",0.0
same,Average Score (out of potential 100),"rabbit eye; 60%, lot A, test 1, 3 eyes, washed 2 sec., 24 hours",0.0
same,Average Score (out of potential 100),"rabbit eye; 60%, lot A, test 1, 3 eyes, washed 2 sec., 48 hours",0.0
same,Average Score (out of potential 100),"rabbit eye; 60%, lot A, test 1, 3 eyes, washed 2 sec., 72 hours",0.0
same,Average Score (out of potential 100),"rabbit eye; 60%, lot A, test 1, 3 eyes, washed 2 sec., 96 hours",0.0
same,Average Score (out of potential 100),"rabbit eye; 60%, lot A, test 1, 3 eyes, washed 2 sec., 7 days",0.0
same,Average Score (out of potential 100),"rabbit eye; 60%, lot A, test 1, 6 eyes, unwashed, 1 hour",0.0
same,Average Score (out of potential 100),"rabbit eye; 60%, lot A, test 1, 6 eyes, unwashed, 24 hours",0.0
same,Average Score (out of potential 100),"rabbit eye; 60%, lot A, test 1, 6 eyes, unwashed, 48 hours",0.0
same,Average Score (out of potential 100),"rabbit eye; 60%, lot A, test 1, 6 eyes, unwashed, 72 hours",0.0
same,Average Score (out of potential 100),"rabbit eye; 60%, lot A, test 1, 6 eyes, unwashed, 96 hours",0.0
same,Average Score (out of potential 100),"rabbit eye; 60%, lot A, test 1, 6 eyes, unwashed, 7 days",0.0
same,Classification (Kay and Calandra),"rabbit eye; 60%, lot A, test 1, unwashed eye",Nonirritating
same,Class. as Irritating Code of Federal Regulations,"rabbit eye; 80%, lot A, test 1",Negative
same,No. of Eyes Positive / No. of Eyes Tested CFR,"rabbit eye; 80%, lot A, test 1",0/6
same,Average Score (out of potential 100),"rabbit eye; 80%, lot A, test 1, 3 eyes, washed 2 sec., 1 hour",0.0
same,Average Score (out of potential 100),"rabbit eye; 80%, lot A, test 1, 3 eyes, washed 2 sec., 24 hours",0.0
same,Average Score (out of potential 100),"rabbit eye; 80%, lot A, test 1, 3 eyes, washed 2 sec., 48 hours",0.0
same,Average Score (out of potential 100),"rabbit eye; 80%, lot A, test 1, 3 eyes, washed 2 sec., 72 hours",0.0
same,Average Score (out of potential 100),"rabbit eye; 80%, lot A, test 1, 3 eyes, washed 2 sec., 96 hours",0.0
same,Average Score (out of potential 100),"rabbit eye; 80%, lot A, test 1, 3 eyes, washed 2 sec., 7 days",0.0
same,Average Score (out of potential 100),"rabbit eye; 80%, lot A, test 1, 6 eyes, unwashed, 1 hour",0.0
same,Average Score (out of potential 100),"rabbit eye; 80%, lot A, test 1, 6 eyes, unwashed, 24 hours",0.0
same,Average Score (out of potential 100),"rabbit eye; 80%, lot A, test 1, 6 eyes, unwashed, 48 hours",0.0
same,Average Score (out of potential 100),"rabbit eye; 80%, lot A, test 1, 6 eyes, unwashed, 72 hours",0.0
same,Average Score (out of potential 100),"rabbit eye; 80%, lot A, test 1, 6 eyes, unwashed, 96 hours",0.0
same,Average Score (out of potential 100),"rabbit eye; 80%, lot A, test 1, 6 eyes, unwashed, 7 days",0.0
same,Classification (Kay and Calandra),"rabbit eye; 80%, lot A, test 1, unwashed eye",Nonirritating
same,Class. as Irritating Code of Federal Regulations,"rabbit eye; 100%, lot A, test 1",Positive
same,No. of Eyes Positive / No. of Eyes Tested CFR,"rabbit eye; 100%, lot A, test 1",4/6
same,Average Score (out of potential 100),"rabbit eye; 100%, lot A, test 1, 3 eyes, washed 2 sec., 1 hour",0.0
same,Average Score (out of potential 100),"rabbit eye; 100%, lot A, test 1, 3 eyes, washed 2 sec., 24 hours",0.0
same,Average Score (out of potential 100),"rabbit eye; 100%, lot A, test 1, 3 eyes, washed 2 sec., 48 hours",0.0
same,Average Score (out of potential 100),"rabbit eye; 100%, lot A, test 1, 3 eyes, washed 2 sec., 72 hours",0.0
same,Average Score (out of potential 100),"rabbit eye; 100%, lot A, test 1, 3 eyes, washed 2 sec., 96 hours",0.0
same,Average Score (out of potential 100),"rabbit eye; 100%, lot A, test 1, 3 eyes, washed 2 sec., 7 days",0.0
same,Average Score (out of potential 100),"rabbit eye; 100%, lot A, test 1, 6 eyes, unwashed, 1 hour",0.0
same,Average Score (out of potential 100),"rabbit eye; 100%, lot A, test 1, 6 eyes, unwashed, 24 hours",15.0
same,Average Score (out of potential 100),"rabbit eye; 100%, lot A, test 1, 6 eyes, unwashed, 48 hours",10.3
same,Average Score (out of potential 100),"rabbit eye; 100%, lot A, test 1, 6 eyes, unwashed, 72 hours",10.0
same,Average Score (out of potential 100),"rabbit eye; 100%, lot A, test 1, 6 eyes, unwashed, 96 hours",10.0
same,Average Score (out of potential 100),"rabbit eye; 100%, lot A, test 1, 6 eyes, unwashed, 7 days",10.0
same,score of one eye (zero),"rabbit eye; 100%, lot A, test 1, unwashed",zero
same,Classification (Kay and Calandra),"rabbit eye; 100%, lot A, test 1, unwashed eye",Cannot be classified
same,maximum score of other eyes,"rabbit eye; 100%, lot A, test 1, unwashed, no other eye greater at any reading",≤ 14
same,score of one eye,"rabbit eye; 100%, lot A, test 1, unwashed, consistent score",60-64
same,Class. as Irritating Code of Federal Regulations,"rabbit eye; 100%, lot A, test 2",Negative
same,No. of Eyes Positive / No. of Eyes Tested CFR,"rabbit eye; 100%, lot A, test 2",0/6
same,Average Score (out of potential 100),"rabbit eye; 100%, lot A, test 2, 3 eyes, washed 2 sec., 1 hour",0.0
same,Average Score (out of potential 100),"rabbit eye; 100%, lot A, test 2, 3 eyes, washed 2 sec., 24 hours",0.0
same,Average Score (out of potential 100),"rabbit eye; 100%, lot A, test 2, 3 eyes, washed 2 sec., 48 hours",0.0
same,Average Score (out of potential 100),"rabbit eye; 100%, lot A, test 2, 3 eyes, washed 2 sec., 72 hours",0.0
same,Average Score (out of potential 100),"rabbit eye; 100%, lot A, test 2, 3 eyes, washed 2 sec., 96 hours",0.0
same,Average Score (out of potential 100),"rabbit eye; 100%, lot A, test 2, 3 eyes, washed 2 sec., 7 days",0.0
same,Average Score (out of potential 100),"rabbit eye; 100%, lot A, test 2, 6 eyes, unwashed, 1 hour",0.0
same,Average Score (out of potential 100),"rabbit eye; 100%, lot A, test 2, 6 eyes, unwashed, 24 hours",0.0
same,Average Score (out of potential 100),"rabbit eye; 100%, lot A, test 2, 6 eyes, unwashed, 48 hours",0.0
same,Average Score (out of potential 100),"rabbit eye; 100%, lot A, test 2, 6 eyes, unwashed, 72 hours",0.0
same,Average Score (out of potential 100),"rabbit eye; 100%, lot A, test 2, 6 eyes, unwashed, 96 hours",0.0
same,Average Score (out of potential 100),"rabbit eye; 100%, lot A, test 2, 6 eyes, unwashed, 7 days",0.0
same,Classification (Kay and Calandra),"rabbit eye; 100%, lot A, test 2, unwashed eye",Nonirritating
same,Class. as Irritating Code of Federal Regulations,"rabbit eye; 100%, lot B, test 1",Negative
same,No. of Eyes Positive / No. of Eyes Tested CFR,"rabbit eye; 100%, lot B, test 1",0/6
same,Average Score (out of potential 100),"rabbit eye; 100%, lot B, test 1, 3 eyes, washed 2 sec., 1 hour",2.7
same,Average Score (out of potential 100),"rabbit eye; 100%, lot B, test 1, 3 eyes, washed 2 sec., 24 hours",18.0
same,Average Score (out of potential 100),"rabbit eye; 100%, lot B, test 1, 3 eyes, washed 2 sec., 48 hours",17.3
same,Average Score (out of potential 100),"rabbit eye; 100%, lot B, test 1, 3 eyes, washed 2 sec., 72 hours",9.4
same,Average Score (out of potential 100),"rabbit eye; 100%, lot B, test 1, 3 eyes, washed 2 sec., 96 hours",8.7
same,Average Score (out of potential 100),"rabbit eye; 100%, lot B, test 1, 3 eyes, washed 2 sec., 7 days",0.0
same,Average Score (out of potential 100),"rabbit eye; 100%, lot B, test 1, 6 eyes, unwashed, 1 hour",3.7
same,Average Score (out of potential 100),"rabbit eye; 100%, lot B, test 1, 6 eyes, unwashed, 24 hours",11.3
same,Average Score (out of potential 100),"rabbit eye; 100%, lot B, test 1, 6 eyes, unwashed, 48 hours",5.6
same,Average Score (out of potential 100),"rabbit eye; 100%, lot B, test 1, 6 eyes, unwashed, 72 hours",5.0
same,Average Score (out of potential 100),"rabbit eye; 100%, lot B, test 1, 6 eyes, unwashed, 96 hours",5.0
same,Average Score (out of potential 100),"rabbit eye; 100%, lot B, test 1, 6 eyes, unwashed, 7 days",4.6
same,score of one other eye (zero),"rabbit eye; 100%, lot B, test 1, unwashed",zero
same,Classification (Kay and Calandra),"rabbit eye; 100%, lot B, test 1, unwashed eye",Mildly irritating
same,score of one eye,"rabbit eye; 100%, lot B, test 1, unwashed, consistently",28-30
same,variability in response of individual rabbit eyes,rabbit eye; undiluted,considerable variability in the response of individual rabbit eyes
same,erythema,rabbit skin [1],transitory mild to moderate erythema
same,gross pathological findings,rabbit skin [1],No gross pathological findings
same,toxicity (preliminary studies),[2],practically nontoxic
same,individual score of single positive reading,rabbit skin [3],1.0
same,score (edema or erythema),rabbit skin [3],No score (edema or erythema) was obtained on any of the rabbits
same,"No. of Reactors/No. of Subj. Tested, 1st Appl.","human skin; 100%, closed patch",0/200
same,"No. of Reactors/No. of Subj. Tested, Both Appl.","human skin; 100%, closed patch",2/200
same,grade of reaction of the two reactors,"human skin; second application only, two subjects",questionable (1) reaction
same,retest of the two reactors,"human skin; semiclosed patch, another site, 48 hours later",both were negative 48 hours
same,primary irritant / skin sensitizer conclusion,"human skin; undiluted, human skin",neither a primary irritant to the human skin nor a skin sensitizer
same,Signs of intoxication,rats,"depression, lacrimation, labored respiration, tachcardia and ataxia"
same,classification for acute oral toxicities (Hodge and Sterner),rats,practically nontoxic
same,examination of the tissues of the animals that died,rats; 6.81 and 10.0 ml/kg,"hyperemic lungs, slight irritation of the small intestine and congestion of kidneys and adrenals"
same,mortality,rats; 6.81 and 10.0 ml/kg,all of the 10 rats given the two higher dosages died
same,survival,"rabbit skin [4]; undiluted, 1.00, 2.15, 4.64 and 10.0 ml per kg",All rabbits survived
same,acute percutaneous toxicity,"rabbit skin [4]; undiluted, rabbit skin under rubber dental dam, 24 hours",greater than 10 ml per kg of body weight
same,chemical interaction with aspirin / induction of aspirin degradation,[5],"does not interact chemically with aspirin, not does it induce the degradation of aspirin"
same,irritation to the integument of the external auditory canal,[6]; 0.35 ml of 40% DMI in water,No irritation to the integument of the external auditory canal was observed
same,irritation to the integument of the external auditory canal,[6]; DMI,No irritation to the integument of the external auditory canal was observed
